In patent US9249148B2, “Tris(hetero)arylpyrazoles and use thereof” (AICURIS GMBH & CO. KG, priority 2012, dated 2016):

Legend:
Type in all cases: cell-based
HIV-1NL4-3 wildtype = test: Luminescence Reduction Assay, luciferase reporter virus in MT4 cells; details: Human immunodeficiency virus 1, MT4, read-out: EC50 (μM) MT4 cells HIV-1NL4-3 wildtype 2% FBS
Excerpt: (§1) For this assay, HIV-1NL4-3 reporter viruses are used which carry the luciferase164 gene (lu164) in place of the nef gene. The viruses are generated by transfection of 293T cells with the corresponding proviral pNL4-3 plasmid (Lipofectamine Reagent, Invitrogen, Karlsruhe, Germany). Starting from the proviral plasmid DNA, viruses with defined resistance mutations (single or combined) are produced in the reverse transcriptase gene using the “QuikChange II XL Site-Directed Mutagenesis Kit” (Stratagene, Cedar Creek, Tex., USA). Resistance mutations include, among others: L74V, A98G, A98S, L100I, K101E, K103N, V106A, V106I, V106M, V108I, V108A, E138K, V179I, V179D, V179E, Y181C, Y181I, Y188L, G190A, G1905, H221Y, P225H, F227C, F227L, F227V, M230I, M230L, L234I, P236L, N348I, T369A, T369I, T369V. MT4 cells infected with these reporter viruses (NIH AIDS Research and Reference Reagent Program) secrete luciferase into the medium, which enables the luminometric quantification of the virus replication.
(§2) For starting a 96-well MTP, 3 million MT4 cells are pelleted, suspended in 1 ml RPMI 1640 medium without phenol red (Invitrogen, Karlsruhe, Germany)/10% FBS/2 mM L-glutamine/1% Pen/Strep (Invitrogen, Karlsruhe, Germany), and incubated for 2 hours at 37° C. with a suitable quantity of the relevant HIV-1NL4-3 reporter virus (pellet infection). Non-adsorbed viruses are then washed out, and the infected cells are pelleted again and suspended in 8 ml RPMI 1640 medium without phenol red/2% or 10% FBS/2 mM L-glutamine/1% Pen/Strep. From this, 90 μl per well is pipetted into a white 96-well MTP to 10 μl of test substance at a suitable level of dilution. In order to avoid edge effects, the edge wells of the MTP are not used for substance dilutions. The second vertical row of the MTP contains only infected cells (virus control) and the eleventh vertical row only non-infected cells (cell control), each in RPMI 1640 medium without phenol red/2% or 10% FBS/2 mM L-glutamine/1% Pen/Strep. The remaining wells of the MTP contain the compounds in accordance with the invention in various concentrations, starting from the third vertical row, from which the test substances are diluted in 3-step sequences up to the tenth vertical row by a factor of 3^7. The test substances are dissolved in DMSO; the final DMSO concentration in the test formulation is 1%.

HIV-1NL4-3 K103N-Y181C = test: Luminescence Reduction Assay, luciferase reporter virus with resistance mutations in MT4 cells; details: Human immunodeficiency virus 1, MT4, read-out: EC50 (μM) MT4 cells HIV-1NL4-3 K103N-Y181C 2% FBS
Excerpt: as §1, §2

HIV-1LAI wildtype = test: alamarBlue Viability Assay with HIV-1LAI-infected MT4 cells; details: Human immunodeficiency virus 1, 10% FBS
Procedure: For starting a 96-well MTP, 3 million PBLs are pelleted, suspended in 1 ml RPMI 1640 medium/10% FBS/2 mM L-glutamine/1% Pen/Strep and incubated for 2 hours at 37° C. with a suitable quantity of the relevant HIV-1LAI (NIH AIDS Research & Reference Reagent Program, Germantown, USA) (pellet infection). Non-adsorbed viruses are then washed out, and the infected cells pelleted again and suspended in 18 ml RPMI 1640 medium/10% FBS/2 mM L-glutamine/1% Pen/Strep/Interleukin-2 (40 U/ml). From this, 180 μl per well is pipetted into a 96-well MTP to 20 μl of test substance at a suitable level of dilution. Alternatively, the HIV is added after preparation of the substance dilutes in the MTP together with the cells, and is not washed out (supernatant infection). In order to avoid edge effects, the edge wells of the MTP are not used for substance dilutions. The second vertical row of the MTP contains only infected cells (virus control) and the eleventh vertical row only non-infected cells (cell control), each in RPMI 1640 medium/10% FBS/2 mM L-glutamine/1% Pen/Strep/Interleukin-2 (40 U/ml). The remaining wells of the MTP contain the compounds in accordance with the invention in various concentrations, starting from the third vertical row, from which the test substances are diluted in 3-step sequences up to the tenth vertical row by a factor of 3^7. The test substances are dissolved in DMSO; the final DMSO concentration in the test preparation is 1%. The test samples are incubated for 5 days at 37° C./5% CO2. After 5 to 7 days, 50 μl of cell-free supernatant is removed from each well to determine its p24 content using p24 ELISA (HIV-1 p24CA Antigen Capture Assay Kit, NCI-Frederick Cancer Research and Development Center, Frederick, USA). From the resulting values of the photometric analysis (450/620 nm), the EC50 values of the test substances are determined from the resulting dose-response curves using the Prism4 software (GraphPad, San Diego, Calif.) as the concentration of treated infected cells, where the p24 quantity is 50% of the untreated infected cells.
Alternatively, MT4 cells are used in place of PBLs for testing the test substances. HIV-1LAI-infected MT4 cells (MOI 0.01, supernatant infection) are incubated in accordance with the procedure described above in RPMI 1640 medium using 2% or 10% FKS/2 mM L-glutamine/1% Pen/Strep in the presence of the test substances for 5 days at 37° C./5% CO2 (10 μl diluted substance and 90 μl cells/virus per well). 10 μl alamarBlue (Invitrogen, Karlsruhe, Germany) is then added per well and the MTPs are incubated for 3 hours at 37° C. before fluorimetric evaluation is performed (544/590 nm). Using quattroWorkflow software (Quattroresearch, Martinsried, Germany), the EC50 values of the test substances are determined from the resulting dose-response curves as the concentration of treated infected cells in which the fluorescence is 50% of that of the untreated, non-infected cells.

SMILES | EC50 (HIV-1NL4-3 wildtype) [µM] | EC50 (HIV-1NL4-3 K103N-Y181C) [µM] | EC50 (HIV-1LAI wildtype) [µM]
O=C1NCc2c1ccnc2-c1cc(-c2cc(Cl)cc(OC(F)(F)F)c2)n(-c2ccc(F)c(Cl)c2)n1 [Example 9, 4-{1-(3-chloro-4-fluorophenyl)-5-[3-chloro-5-(trifluoromethoxy)phenyl]-1H-pyrazole-3-yl}-2,3-dihydro-1H-pyrrolo[3,4-c]pyridine-1-one] | 0.0128 | 0.0176 | 0.0768
COc1cccc(-n2nc(-c3cccc4c3CNC4=O)cc2-c2ccnc(Cl)c2)c1 [Example 40] | 0.0517 | 0.499 | 0.222
Cc1cc(F)cc(-c2cc(-c3cccc4c3CNC4=O)nn2-c2ccc(F)c(Cl)c2)c1 [Example 23] | 0.015 | 0.0565 | 0.0983
O=C1NCc2c1cccc2-c1cc(-c2cc(Cl)cc(OC(F)(F)F)c2)n(-c2cccnc2)n1 [Example 11, 4-{5-[3-chloro-5-(trifluoromethoxy)phenyl]-1-(pyridine-3-yl)-1H-pyrazole-3-yl}-2,3-dihydro-1H-isoindole-1-one] | 0.0091 | 0.024 | 0.0663
COc1cc(OC(F)(F)F)cc(-c2cc(-c3nccc4c3CNC4=O)nn2-c2ccc(F)c(Cl)c2)c1 [Example 27] | 0.0384 | 0.0219 | 0.148
N#Cc1cc(-n2nc(-c3nccc4c3CNC4=O)cc2-c2cc(F)cc(Cl)c2)ccc1F [Example 24] | 0.0002 | 0.0003 | 0.0006
O=C1NCc2c1ccnc2-c1cc(-c2cc(Br)cc(OC(F)(F)F)c2)n(-c2ccc(F)c(Cl)c2)n1 [Example 12, 4-{5-[3-bromo-5-(trifluoromethoxy)phenyl]-1-(3-chloro-4-fluorophenyl)-1H-pyrazole-3-yl}-2,3-dihydro-1H-pyrrolo[3,4-c]pyridine-1-one] | 0.0089 | 0.012 | 0.0974
O=C1NCc2c1cccc2-c1cc(-c2cc(F)cc(Cl)c2)n(-c2cccnc2)n1 [Example 4, 4-[5-(3-chloro-5-fluorophenyl)-1-(pyridine-3-yl)-1H-pyrazole-3-yl]-2,3-dihydro-1H-isoindole-1-one] | 0.0055 | 0.042 | 0.0155
O=C1NCc2c1ccnc2-c1cc(-c2cc(Cl)cc(OC(F)(F)F)c2)n(-c2cccnc2)n1 [Example 10, 4-{5-[3-chloro-5-(trifluoromethoxy)phenyl]-1-(pyridine-3-yl)-1H-pyrazole-3-yl}-2,3-dihydro-1H-pyrrolo[3,4-c]pyridine-1-one] | 0.0012 | 0.0027 | 0.008
N#Cc1cccc(-c2cc(-c3cccc4c3CNC4=O)nn2-c2ccc(F)cc2)c1 [Example 36] | 0.0848 | 0.0675 | 0.449
O=C1NCc2c1ccnc2-c1cc(-c2cc(Cl)cc(OC(F)F)c2)n(-c2cccnc2)n1 [Example 16, 4-{5-[3-chloro-5-(difluoromethoxy)phenyl]-1-(pyridine-3-yl)-1H-pyrazole-3-yl}-2,3-dihydro-1H-pyrrolo[3,4-c]pyridine-1-one] | 0.0005 | 0.0026 | 0.0023
O=C1NCc2c1ccnc2-c1cc(-c2cncc(Cl)c2)n(-c2ccc(F)c(Cl)c2)n1 [Example 31] | 0.0008 | 0.0024 | 0.0041
O=C1NCc2c1ccnc2-c1cc(-c2cc(Br)cc(OC(F)F)c2)n(-c2cccnc2)n1 [Example 19, 4-{5-[3-bromo-5-(difluoromethoxy)phenyl]-1-(pyridine-3-yl)-1H-pyrazole-3-yl}-2,3-dihydro-1H-pyrrolo[3,4-c]pyridine-1-one] | 0.0003 | 0.0019 | 0.0028
O=C1NCc2c1cccc2-c1cc(-c2cc(Br)cc(OC(F)F)c2)n(-c2cccnc2)n1 [Example 21, 4-{5-[3-bromo-5-(difluoromethoxy)phenyl]-1-(pyridine-3-yl)-1H-pyrazole-3-yl}-2,3-dihydro-1H-isoindole-1-one] | 0.0063 | 0.0283 | 0.0325
O=C1NCc2c1ccnc2-c1cc(-c2cc(F)cc(Cl)c2)n(-c2cccnc2)n1 [Example 2, 4-[5-(3-chloro-5-fluorophenyl)-1-(pyridine-3-yl)-1H-pyrazole-3-yl]-2,3-dihydro-1H-pyrrolo[3,4-c]pyridine-1-one] | 0.0013 | 0.0132 | 0.0063
O=C1NCc2c1ncnc2-c1cc(-c2cc(Cl)cc(OC(F)(F)F)c2)n(-c2cccnc2)n1 [Example 45] | 0.0005 | 0.0007 | 0.0045
Cc1nc2c(c(-c3cc(-c4cc(Cl)cc(OC(F)(F)F)c4)n(-c4cccnc4)n3)n1)CNC2=O [Example 46] | 0.0004 | 0.0004 | 0.0023
O=C1NCc2c1cccc2-c1cc(-c2cc(Cl)cc(OC(F)F)c2)n(-c2cccnc2)n1 [Example 18, 4-{5-[3-chloro-5-(difluoromethoxy)phenyl]-1-(pyridine-3-yl)-1H-pyrazole-3-yl}-2,3-dihydro-1H-isoindole-1-one] | 0.0056 | 0.013 | 0.0177
O=C1NCc2c1ccnc2-c1cc(-c2cc(F)cc(Cl)c2)n(-c2cccc(Cl)c2)n1 [Example 26] | 0.0017 | 0.0208 | 0.0153
O=C1NCc2c1ccnc2-c1cc(-c2cc(F)cc(OC(F)F)c2)n(-c2cccnc2)n1 [Example 14, 4-{5-[3-(difluoromethoxy)-5-fluorophenyl]-1-(pyridine-3-yl)-1H-pyrazole-3-yl}-2,3-dihydro-1H-pyrrolo[3,4-c]pyridine-1-one] | 0.001 | 0.0097 | 0.0053
N#Cc1cc(-n2nc(-c3cccc4c3CNC4=O)cc2-c2cc(F)cc(Cl)c2)ccc1F [Example 25] | 0.0009 | 0.0112 | 0.0107
COc1cccc(-n2nc(-c3nccc4c3CNC4=O)cc2-c2ccnc(Cl)c2)c1 [Example 39] | 0.0075 | 0.0692 | 0.0486
